System: 926638-142-R-J1-PDC complex spheroid viability
Assay: Anticancer human tumor 926638-142-R-J1-PDC patient-derived endometrial carcinoma cell line growth inhibition [POLQ]
Details: for IC50: curve of first compound; for viability, T/C: stronger effect = lower value
Experimental: Multicellular complex tumor spheroid response to Polymerase (POL) inhibitors (novobiocin, ART-558, RP6685) in combination with a variety of drugs and investigational agents in selected tumor cell lines
The POL inhibitors (novobiocin, ART-558, and RP6685) were evaluated both individually and in combination with standard of care and investigational anticancer small molecules within a complex spheroid model of solid tumors. . Complex spheroids include a stromal component modeled by human endothelial cells (HUVEC) and fibroblasts modeled by human mesenchymal stem cells (MSCs). The concentration ranges selected for each drug and investigational agent were based upon clinically achievable concentrations if the clinical Cmax of the agent was known.
Compounds. The drugs and investigational agents: novobiocin (NSC847541), ART-558 (NSC835418), RP-6685 (NSC848927), peposertib (NSC802822), ceralasertib (NSC780249), elimusertib (NSC800525), camonsertib (NSC841442), AZD-1390 (NSC803789), olaparib (NSC753686), talazoparib (NSC767125), rucaparib (NSC756644), sotorasib (NSC818433), MRTX-1133 (NSC836407), SN-38 (NSC673596), topotecan (NSC609699), epotoside (NSC141540), doxorubicin (NSC123127), gemcitabine (NSC613327), 5-fluorouracil (NSC19893), paclitaxel (NSC125973), vemurafenib (NSC761431), MSA-2 (NSC828583), SN-011 (NSC837082), adavosertib (NSC754352), prexasertib (NSC758257), carboplatin (NSC241240) and oxaliplatin (NSC266046), were obtained from the National Cancer Institute (NCI) Developmental Therapeutics Program Chemical Repository (21). The FDA-approved anticancer drug set is available from the Developmental Therapeutics Program at https://dtp.cancer.gov/organization/dscb/obtaining/. […] The stock solutions were prepared in dimethyl sulfoxide (DMSO, Sigma-Aldrich, St. Louis, MO, cat. D2650), except for the platinum compounds which were prepared in saline (Quality Biological, Gaithersburg, MD, cat. 114-055-101), at 800-fold the tested concentration and stored at -70 degrees C prior to their use. All drugs and investigational agents were tested over a range starting from a high concentration at or near the clinical Cmax and decreasing in half-log increments. If the clinical Cmax for an agent had not been determined, the highest concentration tested was 10 microM, except for SN-38, which was tested at a high concentration of 1 microM.
Cell Culture. All cells were maintained in an incubator at 37 degrees C and 5% CO2 with 95% humidity. The PDC lines were cultured according to standard operating procedures established by the NCI PDMR (https://pdmr.cancer.gov). Table 3 of the manuscript, lists the cell lines along with the number of the three cell types plated to form the mct-spheroids and media for tumor cell growth. After thawing, all PDC lines, except 997537-175-T-J1-PDC and 415267-285-R-J2-PDC, were cultured in Matrigel-coated flasks prepared with a working solution of 1X Ham's F-12 nutrient mix, without supplementation (Thermo Fisher Scientific, cat. 11765054), 100 U/mL penicillin-streptomycin (Thermo Fisher Scientific, cat. 15140122), and 2.5% Matrigel (Corning Inc., Corning, NY, cat. 354248) for the first three passages. The two PDC lines 997537-175-T-J1-PDC and 415267-285-R-J2-PDC were cultured on uncoated flasks. The 857933-349-R-J2-PDC line was cultured in 6C/Colon 1B media containing advanced DMEM/F-12 (Thermo Fisher Scientific, cat. 12634028), 10 mM HEPES (Thermo Fisher Scientific, cat. 15630080), 1X GlutaMAX supplement (Thermo Fisher Scientific, cat. 35050061), 0.1 mg/mL primocin (InvivoGen, San Diego, CA, cat. ant-pm-2), 10% defined fetal bovine serum, heat inactivated (HyClone Laboratories Inc., Logan, UT, cat. SH30070.03HI), 50% L-WRN conditioned media (ATCC, cat. CRL-3276), 1.25 mM N-Acetyl-L-cysteine (Sigma-Aldrich, cat. A9165), 10 mM nicotinamide (Sigma-Aldrich, cat. N0636), 1X B-27 supplement (Thermo Fisher Scientific, cat. 17504044), 1X N-2 supplement (Thermo Fisher Scientific, cat. […]
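Note: spheroids exposed to drugs for one week before readout.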
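Throughout, for viability, T/C: percent viability relative to DMSO vehicle control wells set as 100%.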

CC(=O)O[C@H]1C(=O)[C@@]2(C)[C@H]([C@H](OC(=O)c3ccccc3)[C@]3(O)C[C@H](OC(=O)[C@H](O)[C@@H](NC(=O)c4ccccc4)c4ccccc4)C(C)=C1C3(C)C)[C@]1(OC(C)=O)CO[C@@H]1C[C@@H]2O + COC1C(OC(N)=O)C(O)C(Oc2ccc3c(O)c(NC(=O)c4ccc(O)c(CC=C(C)C)c4)c(=O)oc3c2C)OC1(C)C
IC50 (second compound 0.0316 µM): > 3 µM | IC50 (second compound 0.1 µM): > 3 µM | IC50 (second compound 0.316 µM): > 3 µM | IC50 (second compound 1 µM): > 3 µM | IC50 (second compound 3.16 µM): > 3 µM | IC50 (second compound 10 µM): > 3 µM | viability, T/C (second compound 0.0316 µM, first compound 0.00949 µM): 94.1% | viability, T/C (second compound 0.0316 µM, first compound 0.03 µM): 76.3% | viability, T/C (second compound 0.0316 µM, first compound 0.0949 µM): 65.2% | viability, T/C (second compound 0.0316 µM, first compound 0.3 µM): 58% | viability, T/C (second compound 0.0316 µM, first compound 0.949 µM): 62.3% | viability, T/C (second compound 0.0316 µM, first compound 3 µM): 51.4% | viability, T/C (second compound 0.1 µM, first compound 0.00949 µM): 89.5% | viability, T/C (second compound 0.1 µM, first compound 0.03 µM): 80.9% | viability, T/C (second compound 0.1 µM, first compound 0.0949 µM): 62.8% | viability, T/C (second compound 0.1 µM, first compound 0.3 µM): 49.9% | viability, T/C (second compound 0.1 µM, first compound 0.949 µM): 60.1% | viability, T/C (second compound 0.1 µM, first compound 3 µM): 59% | viability, T/C (second compound 0.316 µM, first compound 0.00949 µM): 75.5% | viability, T/C (second compound 0.316 µM, first compound 0.03 µM): 74.7% | viability, T/C (second compound 0.316 µM, first compound 0.0949 µM): 63.6% | viability, T/C (second compound 0.316 µM, first compound 0.3 µM): 58.2% | viability, T/C (second compound 0.316 µM, first compound 0.949 µM): 48.4% | viability, T/C (second compound 0.316 µM, first compound 3 µM): 63.4% | viability, T/C (second compound 1 µM, first compound 0.00949 µM): 81.4% | viability, T/C (second compound 1 µM, first compound 0.03 µM): 70% | viability, T/C (second compound 1 µM, first compound 0.0949 µM): 55.9% | viability, T/C (second compound 1 µM, first compound 0.3 µM): 53.1% | viability, T/C (second compound 1 µM, first compound 0.949 µM): 62% | viability, T/C (second compound 1 µM, first compound 3 µM): 51.8% | viability, T/C (second compound 3.16 µM, first compound 0.00949 µM): 86.5% | viability, T/C (second compound 3.16 µM, first compound 0.03 µM): 72.2% | viability, T/C (second compound 3.16 µM, first compound 0.0949 µM): 67% | viability, T/C (second compound 3.16 µM, first compound 0.3 µM): 57.6% | viability, T/C (second compound 3.16 µM, first compound 0.949 µM): 67% | viability, T/C (second compound 3.16 µM, first compound 3 µM): 54.7% | viability, T/C (second compound 10 µM, first compound 0.00949 µM): 94.6% | viability, T/C (second compound 10 µM, first compound 0.03 µM): 73.4% | viability, T/C (second compound 10 µM, first compound 0.0949 µM): 64.9% | viability, T/C (second compound 10 µM, first compound 0.3 µM): 52.1% | viability, T/C (second compound 10 µM, first compound 0.949 µM): 51.8% | viability, T/C (second compound 10 µM, first compound 3 µM): 60.4%
